# Assay results reported in ChEMBL document CHEMBL4118125, “MK-8325: A silyl proline-containing NS5A inhibitor with pan-genotype activity for treatment of HCV” (Bioorg Med Chem Lett, 2018).
# Activity calls are given as the source filed them. No cut-off for these calls is given here.
# Tests used:
# Homo sapiens = species: Homo sapiens; test: Inhibition of sodium channel (unknown origin) at 30 uM
# Cytochrome P450 2D6 = Cytochrome P450 2D6 (Homo sapiens, UniProt P10635); test: Inhibition of CYP2D6 (unknown origin); format: ADME
# Cytochrome P450 2D6, sequence (P10635 whole entry): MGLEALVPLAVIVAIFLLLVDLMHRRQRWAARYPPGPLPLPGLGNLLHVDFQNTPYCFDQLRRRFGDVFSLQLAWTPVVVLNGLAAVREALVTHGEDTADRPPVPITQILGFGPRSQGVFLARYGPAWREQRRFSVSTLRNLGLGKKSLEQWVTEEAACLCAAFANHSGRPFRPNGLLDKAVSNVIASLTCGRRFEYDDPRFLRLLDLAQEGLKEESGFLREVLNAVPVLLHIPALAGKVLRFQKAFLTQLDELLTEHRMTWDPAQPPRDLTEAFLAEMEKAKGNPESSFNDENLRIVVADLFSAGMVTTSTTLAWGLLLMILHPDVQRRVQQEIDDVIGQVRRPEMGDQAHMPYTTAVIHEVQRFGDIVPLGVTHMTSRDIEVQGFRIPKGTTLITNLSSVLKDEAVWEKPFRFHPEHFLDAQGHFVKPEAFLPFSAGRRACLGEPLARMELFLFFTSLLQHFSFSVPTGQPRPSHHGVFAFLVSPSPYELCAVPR
# [1] = Ratio of drug level in brain to plasma of cynomolgus monkey; format: ADME, cell-free, Macaca fascicularis; details: read-out: BPR
# Rattus norvegicus [2] = test: Clearance in Sprague-Dawley rat at 2.5 mg/kg, iv by LC-MS/MS method relative to liver blood flow; format: ADME, organism-based; details: in vivo
# [3] = Protein binding in cynomolgus monkey plasma; format: ADME, cell-free, Macaca fascicularis; details: read-out: PPB
# [4] = Solubility in pH 7.3 buffer; format: physicochemical
# Hepatocyte [5] = test: Stability in rat hepatocytes assessed as compound metabolism; format: ADME, cell-based
# [6] = Therapeutic index, ratio of CC50 for human HuH7 replicon cells to EC50 for inhibition of HCV NS5A in HCV genotype 1b assessed as reduction in viral replication by cell based replicon assay; format: toxicity; details: read-out: Ratio CC50/EC50
# Hepatocyte [7] = test: Stability in dog hepatocytes assessed as compound metabolism; format: ADME, cell-based, Canis lupus familiaris
# [8] = Solubility in pH 3.1 buffer; format: physicochemical
# [9] = biological target: T1, Solute carrier organic anion transporter family member 1B1 (Homo sapiens, UniProt Q9Y6L6); test: Inhibition of human OATP1B1; format: ADME
# T1 sequence (Q9Y6L6 whole entry): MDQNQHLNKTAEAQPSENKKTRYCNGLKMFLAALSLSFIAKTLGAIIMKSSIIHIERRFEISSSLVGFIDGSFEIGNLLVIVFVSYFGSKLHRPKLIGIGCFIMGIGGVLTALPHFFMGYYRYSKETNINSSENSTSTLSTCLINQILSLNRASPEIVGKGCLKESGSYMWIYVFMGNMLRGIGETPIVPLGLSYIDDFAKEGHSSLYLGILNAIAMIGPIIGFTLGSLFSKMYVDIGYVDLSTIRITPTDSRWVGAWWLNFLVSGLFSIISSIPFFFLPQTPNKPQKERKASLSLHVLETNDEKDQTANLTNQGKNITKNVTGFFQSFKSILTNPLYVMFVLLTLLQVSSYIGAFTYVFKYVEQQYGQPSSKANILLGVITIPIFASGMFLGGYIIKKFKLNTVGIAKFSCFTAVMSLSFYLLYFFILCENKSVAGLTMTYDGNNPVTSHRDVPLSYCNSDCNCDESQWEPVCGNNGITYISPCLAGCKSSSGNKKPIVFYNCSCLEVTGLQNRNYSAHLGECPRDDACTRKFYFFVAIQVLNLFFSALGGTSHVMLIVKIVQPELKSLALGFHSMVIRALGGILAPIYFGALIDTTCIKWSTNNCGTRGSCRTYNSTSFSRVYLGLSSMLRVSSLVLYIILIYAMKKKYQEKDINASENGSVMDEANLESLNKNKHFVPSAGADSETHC
# [10] = biological target: T2, Nuclear receptor subfamily 1 group I member 2 (Homo sapiens, UniProt O75469); test: Activation of PXR in human hepatocytes assessed as induction of […] mRNA expression; format: ADME, cell-based
# T2 sequence (O75469 whole entry): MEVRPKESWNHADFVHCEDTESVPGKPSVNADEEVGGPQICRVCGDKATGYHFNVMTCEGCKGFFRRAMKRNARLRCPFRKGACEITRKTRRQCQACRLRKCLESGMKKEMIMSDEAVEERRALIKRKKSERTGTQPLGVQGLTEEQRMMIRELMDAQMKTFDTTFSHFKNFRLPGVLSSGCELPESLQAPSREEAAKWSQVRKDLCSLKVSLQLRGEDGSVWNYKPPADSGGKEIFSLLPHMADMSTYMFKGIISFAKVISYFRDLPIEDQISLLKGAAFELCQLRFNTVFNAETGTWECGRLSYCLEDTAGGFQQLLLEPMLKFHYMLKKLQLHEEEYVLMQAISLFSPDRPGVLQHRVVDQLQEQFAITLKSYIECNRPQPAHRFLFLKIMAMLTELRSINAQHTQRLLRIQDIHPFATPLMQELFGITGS
# [11] = Stability in rat liver microsomes assessed as compound metabolism; format: ADME, microsome
# [12] = Protein binding in rat plasma; format: ADME, cell-free; details: read-out: PPB
# [13] = Drug excretion in rat feces assessed as unchanged compound level at 2.5 mg/kg, iv; format: ADME, organism-based; details: faeces, read-out: Drug excretion
# [14] = Ratio of drug level in brain to plasma of rat; format: ADME, cell-free; details: read-out: BPR
# [15] = Ratio of drug level in brain to plasma of dog; format: ADME, cell-free, Canis lupus familiaris; details: read-out: BPR
# Rattus norvegicus [16] = test: Toxicity in male rat assessed as increase in monocyte level at 100 mg/kg/day, po for 7 days; format: organism-based; details: in vivo, 168 h
# [17] = biological target: T3, PXR (Nuclear receptor subfamily 1 group I member 2) (Homo sapiens, UniProt O75469); test: Activation of PXR (unknown origin) relative to rifampicin; format: ADME; details: read-out: FC
# T3 sequence (O75469 whole entry): T2 sequence (O75469 whole entry)
# Rattus norvegicus [18] = test: Toxicity in male rat assessed as induction of mortality up to 750 mg/kg/day, po for 7 days; format: organism-based; details: in vivo, 168 h
# [19] = biological target: Voltage-gated inwardly rectifying potassium channel KCNH2 (Homo sapiens, UniProt Q12809); test: Inhibition of human ERG at 30 uM
# Voltage-gated inwardly rectifying potassium channel KCNH2, sequence (Q12809 whole entry): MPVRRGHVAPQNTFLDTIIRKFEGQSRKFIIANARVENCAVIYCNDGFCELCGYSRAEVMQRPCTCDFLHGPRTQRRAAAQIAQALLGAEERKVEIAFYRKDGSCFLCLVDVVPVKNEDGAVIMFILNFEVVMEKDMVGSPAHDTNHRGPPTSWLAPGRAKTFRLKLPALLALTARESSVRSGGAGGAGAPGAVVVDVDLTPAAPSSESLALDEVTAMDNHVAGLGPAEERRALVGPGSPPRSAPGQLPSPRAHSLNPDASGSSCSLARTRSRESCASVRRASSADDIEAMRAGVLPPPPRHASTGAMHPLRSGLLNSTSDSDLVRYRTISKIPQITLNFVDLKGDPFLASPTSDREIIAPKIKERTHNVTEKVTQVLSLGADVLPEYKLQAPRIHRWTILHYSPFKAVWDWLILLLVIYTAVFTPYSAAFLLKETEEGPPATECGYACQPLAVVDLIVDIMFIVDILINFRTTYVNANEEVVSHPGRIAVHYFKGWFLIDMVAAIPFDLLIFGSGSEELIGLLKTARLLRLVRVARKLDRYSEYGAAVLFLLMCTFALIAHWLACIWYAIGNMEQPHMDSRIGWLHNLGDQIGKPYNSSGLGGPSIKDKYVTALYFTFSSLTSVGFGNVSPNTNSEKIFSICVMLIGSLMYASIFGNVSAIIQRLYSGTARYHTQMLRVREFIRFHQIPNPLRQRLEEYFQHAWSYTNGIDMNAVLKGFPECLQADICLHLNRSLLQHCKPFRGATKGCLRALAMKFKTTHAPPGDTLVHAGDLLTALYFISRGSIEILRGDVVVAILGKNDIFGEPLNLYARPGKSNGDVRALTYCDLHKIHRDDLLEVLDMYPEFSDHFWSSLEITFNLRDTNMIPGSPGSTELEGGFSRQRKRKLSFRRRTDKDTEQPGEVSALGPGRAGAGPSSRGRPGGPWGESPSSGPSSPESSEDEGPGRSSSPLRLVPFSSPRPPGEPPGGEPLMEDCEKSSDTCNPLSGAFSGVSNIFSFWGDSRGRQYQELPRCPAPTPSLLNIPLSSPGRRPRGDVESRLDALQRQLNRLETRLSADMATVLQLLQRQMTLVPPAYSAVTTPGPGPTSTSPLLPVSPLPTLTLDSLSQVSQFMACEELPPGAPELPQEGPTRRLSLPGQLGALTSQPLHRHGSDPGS
# Rattus norvegicus [20] = test: Toxicity in male rat assessed as increase in monocyte level at 750 mg/kg/day, po for 7 days; format: organism-based; details: in vivo, 168 h
# [21] = Ratio of drug level in liver to plasma of dog; format: ADME, cell-free, Canis lupus familiaris
# Canis familiaris [22] = test: Clearance in beagle dog at 1 mg/kg, iv by LC-MS/MS method relative to liver blood flow; format: ADME, organism-based, Canis lupus familiaris; details: in vivo
# Hepatocyte [23] = test: Stability in cynomolgus monkey hepatocytes assessed as compound metabolism; format: ADME, cell-based, Macaca fascicularis
# [24] = biological target: Voltage-gated L-type calcium channel (Homo sapiens, UniProt Q13936+Q13698+Q01668+O60840); test: Inhibition of L-type calcium channel (unknown origin) at 30 uM; format: protein assay
# [25] = biological target: T2, Nuclear receptor subfamily 1 group I member 2; test: Activation of PXR (unknown origin); format: ADME
# [26] = Drug excretion in rat bile assessed as unchanged compound level at 2.5 mg/kg, iv; format: ADME, organism-based; details: read-out: Drug excretion
# [27] = Toxicity in female rat up to 30 mg/kg/day, po for 4 days; format: organism-based; details: in vivo
# Salmonella typhimurium = test: Genotoxicity in Salmonella typhimurium by Ames test; format: toxicity, organism-based; details: salmonella enterica subsp. enterica serovar typhimurium
# Cynomolgus monkey = test: Clearance in cynomolgus monkey at 1 mg/kg, iv by LC-MS/MS method relative to liver blood flow; format: ADME, organism-based, Macaca fascicularis; details: in vivo
# Cytochrome P450 3A4 = Cytochrome P450 3A4 (Homo sapiens, UniProt P08684); test: Inhibition of CYP3A4 (unknown origin); format: ADME
# Cytochrome P450 3A4, sequence (P08684 whole entry): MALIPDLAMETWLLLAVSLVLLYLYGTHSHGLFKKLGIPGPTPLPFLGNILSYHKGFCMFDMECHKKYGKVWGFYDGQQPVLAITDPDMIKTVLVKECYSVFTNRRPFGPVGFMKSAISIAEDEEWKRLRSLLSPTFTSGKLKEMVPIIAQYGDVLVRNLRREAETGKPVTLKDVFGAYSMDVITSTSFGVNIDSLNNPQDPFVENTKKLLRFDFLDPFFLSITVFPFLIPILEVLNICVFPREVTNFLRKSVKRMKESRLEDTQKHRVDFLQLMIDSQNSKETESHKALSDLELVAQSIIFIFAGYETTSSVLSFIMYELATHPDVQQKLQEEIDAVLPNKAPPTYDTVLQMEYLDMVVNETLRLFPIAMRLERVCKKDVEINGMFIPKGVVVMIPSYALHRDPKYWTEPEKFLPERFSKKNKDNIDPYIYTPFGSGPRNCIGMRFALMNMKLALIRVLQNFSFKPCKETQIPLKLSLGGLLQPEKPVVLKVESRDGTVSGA
# [28] = Drug excretion in rat urine assessed as unchanged compound level at 2.5 mg/kg, iv; format: ADME, organism-based; details: read-out: Drug excretion
# [29] = Protein binding in dog plasma; format: ADME, cell-free, Canis lupus familiaris; details: read-out: PPB
# [30] = Cytotoxicity in human HuH7 replicon cells by MTS assay; format: cell-based, Huh-7
# [31] = Ratio of drug level in liver to plasma of cynomolgus monkey; format: ADME, cell-free, Macaca fascicularis
# Canis familiaris [32] = test: Toxicity in male dog up to 750 mg/kg/day, po for 7 days; format: organism-based, Canis lupus familiaris; details: in vivo, 168 h
# [33] = Permeability in MDCK2 cells; format: ADME, cell-based, Canis lupus familiaris, MDCK-II; details: dog, MDCK; read-out: permeability
# [34] = Drug excretion in dog assessed as unchanged compound level at 1 mg/kg, iv; format: ADME, organism-based, Canis lupus familiaris; details: in vivo
# [35] = Stability in human liver microsomes assessed as compound metabolism; format: ADME, microsome
# [36] = Ratio of drug level in liver to plasma of rat; format: ADME, cell-free
# Cytochrome P450 2C9 = Cytochrome P450 2C9 (Homo sapiens, UniProt P11712); test: Inhibition of CYP2C9 (unknown origin); format: ADME
# Cytochrome P450 2C9, sequence (P11712 whole entry): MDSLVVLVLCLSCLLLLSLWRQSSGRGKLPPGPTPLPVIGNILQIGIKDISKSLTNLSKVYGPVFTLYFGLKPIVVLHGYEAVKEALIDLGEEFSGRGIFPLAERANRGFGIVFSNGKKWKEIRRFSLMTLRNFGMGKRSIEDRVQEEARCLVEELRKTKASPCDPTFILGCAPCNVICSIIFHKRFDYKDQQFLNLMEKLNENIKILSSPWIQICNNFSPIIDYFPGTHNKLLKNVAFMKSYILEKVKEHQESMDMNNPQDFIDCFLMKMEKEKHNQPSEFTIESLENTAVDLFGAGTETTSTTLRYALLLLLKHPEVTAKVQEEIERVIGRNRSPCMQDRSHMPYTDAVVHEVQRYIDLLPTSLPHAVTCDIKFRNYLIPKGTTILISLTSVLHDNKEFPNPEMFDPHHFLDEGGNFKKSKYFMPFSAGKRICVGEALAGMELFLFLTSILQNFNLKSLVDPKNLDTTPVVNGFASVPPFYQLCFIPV
# [37] = Dissociation constant, pKa of the compound; format: physicochemical
# [38] = Stability in dog liver microsomes assessed as compound metabolism; format: ADME, Canis lupus familiaris, microsome
# Hepatocyte [39] = test: Stability in human hepatocytes assessed as compound metabolism; format: ADME, cell-based
# [40] = Stability in cynomolgus monkey liver microsomes assessed as compound metabolism; format: ADME, Macaca fascicularis, microsome
compound,measurement,setting,value
COC(=O)N[C@H](C(=O)N1CC(F)(F)C[C@H]1c1ncc(-c2ccc(-c3ccc4c(ccc5nc([C@@H]6C[Si](C)(C)CN6C(=O)[C@@H](NC(=O)OC)C(C)C)[nH]c54)c3)cc2)[nH]1)C(C)C [listing 1 of 2 here],inhibition,Homo sapiens,inactive
COC(=O)N[C@H](C(=O)N1CC(F)(F)C[C@H]1c1ncc(-c2ccc(-c3ccc4c(ccc5nc([C@@H]6C[Si](C)(C)CN6C(=O)[C@@H](NC(=O)OC)C(C)C)[nH]c54)c3)cc2)[nH]1)C(C)C [listing 2 of 2 here],INH,Cytochrome P450 2D6,> 20 µM
same,Kp,[1],0.04
same,clearance,Rattus norvegicus [2],3 to 7%
same,fraction unbound,[3],< 0.001
same,solubility,[4],2.7 µg/mL
same,Stability,Hepatocyte [5],Stable
same,selectivity ratio,[6],> 8e+06
same,Stability,Hepatocyte [7],Stable
same,solubility,[8],65 µg/mL
same,inhibition (INH),[9],Active
same,Activity,[10],> 3 µM
same,Stability,[11],Stable
same,fraction unbound,[12],< 0.001
same,dose excreted,[13],27%
same,Kp,[14],0.04
same,Kp,[15],0.04
same,Activity,Rattus norvegicus [16],Toxic
same,fold induction,[17],0.2
same,Activity,Rattus norvegicus [18],Non-Toxic
same,inhibition (INH),[19],Not Active
same,Activity,Rattus norvegicus [20],Toxic
same,Kp,[21],27
same,clearance,Canis familiaris [22],3 to 7%
same,Stability,Hepatocyte [23],Stable
same,inhibition (INH),[24],Not Active
same,Activity,[25],> 10 µM
same,dose excreted,[26],27%
same,NOAEL at 96 h,[27],> 30 mg/kg/day
same,Activity,Salmonella typhimurium,Non-Toxic
same,clearance,Cynomolgus monkey,3 to 7%
same,INH,Cytochrome P450 3A4,> 20 µM
same,dose excreted,[28],27%
same,fraction unbound,[29],< 0.001
same,CC50,[30],> 25 µM
same,Kp,[31],27
same,Activity,Canis familiaris [32],Non-Toxic
same,Papp,[33],0.8 ×10⁻⁶ cm/s
same,Drug excretion,[34],Active
same,Stability,[35],Stable
same,Kp,[36],27
same,INH,Cytochrome P450 2C9,> 20 µM
same,pKa,[37],3.57 to 5.69
same,Stability,[38],Stable
same,Stability,Hepatocyte [39],Stable
same,Stability,[40],Stable
